From publication PMC6251916, “CKD-506, a novel HDAC6-selective inhibitor, improves renal outcomes and survival in a mouse model of systemic lupus erythematosus” (Scientific Reports, 2018)

Experiments:
NZB/W F1 female mice [1] = assay: Murine SLE model: BUN and anti-dsDNA antibody levels; assay type: in vivo, mouse
Experimental: (§1) Survival had been monitored until 42 weeks of age.
Blood samples had been collected from mice under isoflurane anesthesia every 4 weeks (at 24, 28, 32, 36, 40 weeks of age and autopsy), and the obtained serum samples had been kept at −70 °C until the analysis.

NZB/W F1 female mice [2] = assay: Murine SLE model: serum chemistry and necropsy; settings: for ALP / ALT / AST / Albumin / CPK / Ca / Total bilirubin / Total protein: serum at autopsy, mean ± SD
Experimental: Control mice received 150 μL of vehicle (Ethanol: Kolliphor® EL: saline = 1:1:8) and were subjected to the same schedule. Survival rate and incidence of severe proteinuria (percent individual mice with urine protein ≥300 mg/dL) were calculated. Survival had been monitored until 42 weeks of age.

NZB/W F1 female mice [3] = assay: Murine SLE model: cytokine levels in kidney extracts; assay type: in vivo, mouse; settings: at autopsy, mean ± SD
Experimental: The kidneys were weighed and then transferred into dPBS (Welgene) supplemented with anti-protease Complete TM cocktail (Boehringer) using 12.5 μl of dPBS per milligram of wet weight tissue. Samples were homogenized twice using an Automill TK-AM5 freeze-crushing cell homogenizer (W 280 mm × D 390 mm × H 290 mm, Tokken Inc., Chiba, Japan) at 1,400 rpm for 90 seconds and then centrifuged at 16,000 × g for 15 min at 4 °C. The supernatants were collected and total protein concentrations were determined in the kidney extracts using a bicinchoninic acid (BCA) protein assay kit™ (Pierce). Total protein concentrations of the kidney extracts were adjusted to 2 mg/dl and used for the analysis of IFN-γ, IL-10, IL-15, IL-17, IL-1β, IL-4, IL-6, IP-10, MCP-1, CCL4, RANTES, TNF-α and sCD40L with Milliplex® MAP Kits (Millipore).

[4] = test system: acetylation of histone H4; assay: Analysis of protein acetylation in human PBMC (western blot); assay type: cell-based; settings: 4 hr
Experimental: (§2) Human peripheral blood mononuclear cells (PBMC) (IRB No. CKD-IRB-012) were seeded (1.0 × 10^6 cells/well) and cultured for 24 hr on 12-well plate before treatment of CKD-506 or LBH-589. The chemicals were treated for 4 hr. After harvesting cells, total protein extracts were prepared. The protein extracts were resolved in pre-made SDS-PAGE (NuPAGE® Bis-Tris Precast Gels, Invitrogen). Proteins were transferred onto polyvinylidene difluoride (PVDF) membrane and probed with the following antibodies; anti-acetyl α tubulin (1:5000, #5335, Cell Signaling Technology), α tubulin (1:2000, #2144, Cell Signaling Technology), anti-acetyl histone H4(1:5000, #8647, Cell Signaling Technology), anti-histone H4(1:1000, #2935S, Cell Signaling Technology), and anti-beta-actin (1:5000, #A5441, Sigma). The horseradish peroxidase-conjugated anti-rabbit IgG (1:5000, #7074S, Cell Signaling Technology) and anti-mouse IgG (1:5000, #7076 S, Cell Signaling Technology) were used as secondary antibodies. Acetylated proteins were visualized by chemiluminescence (RPN2235, GE healthcare) and detected by the Gel documentation system (ChemiDoc™, BioRad).

acetylation of α tubulin = assay: as above; assay type: cell-based
Experimental: as §2

NZB/W F1 female mice [5] = assay: Murine SLE model: survival, severe proteinuria, UP/C; assay type: in vivo, mouse; settings: for Survival rate at the end of the study: 42-weeks of age; for incidence of severe proteinuria (urine protein >300 mg/dl): 42 weeks of age
Experimental: as §1
During the experiments, urine protein levels had been measured every 2 weeks. Fresh urine was collected by performing abdominal massages. Urine protein was measured with the Coomassie Brilliant Blue method as described in our previous study. Urine creatinine was measured using a DRI-CHEM 3000 Colorimetric analyzer (Fujifilm, Tokyo, Japan) with the urine diluted in deionized water (1:100 dilution).

[6] = design: method as in EudraCT number: 2016-002816-42; settings: ref EudraCT number: 2016-002816-42; cited from earlier work
[7] = group D: CKD-506 10 mg/kg/day, n = 10
[8] = group E: CKD-506 30 mg/kg/day, n = 14

CKD-506
Levels of BUN vs vehicle (NZB/W F1 female mice [1]; group CKD30, 40 weeks of age): significantly lower | Levels of BUN vs vehicle (NZB/W F1 female mice [1]; group CKD30, at autopsy): significantly lower | Levels of BUN vs vehicle (NZB/W F1 female mice [1]; group CKD50, 36 weeks of age): significantly lower | Levels of BUN vs vehicle (NZB/W F1 female mice [1]; group CKD50, 40 weeks of age): significantly lower | Levels of BUN vs vehicle (NZB/W F1 female mice [1]; group CKD50, at autopsy): significantly lower | appearance of the spleen, kidneys, liver, lungs, or heart (gross or microscopic examination at necropsy) (NZB/W F1 female mice [2]; end of experiment): did not result in significant changes | serum ALT relative to reference range (NZB/W F1 female mice [2]; group CKD50, significantly higher than the other groups): within the reference range | ALP (NZB/W F1 female mice [2]; group D: CKD-506 10 mg/kg/day): 187.44 ± 62.24 U/l | ALT (NZB/W F1 female mice [2]; group D: CKD-506 10 mg/kg/day): 18.10 ± 5.43 U/l | AST (NZB/W F1 female mice [2]; group D: CKD-506 10 mg/kg/day): 44.20 ± 10.09 U/l | Albumin (NZB/W F1 female mice [2]; group D: CKD-506 10 mg/kg/day): 1.91 ± 0.43 g/dL | CPK (NZB/W F1 female mice [2]; group D: CKD-506 10 mg/kg/day): 86.70 ± 56.89 U/l | Ca (NZB/W F1 female mice [2]; group D: CKD-506 10 mg/kg/day): 10.08 ± 1.26 mg/dL | Total bilirubin (NZB/W F1 female mice [2]; group D: CKD-506 10 mg/kg/day): 0.22 ± 0.09 mg/dL | Total protein (NZB/W F1 female mice [2]; group D: CKD-506 10 mg/kg/day): 4.74 ± 0.63 g/dL | ALP (NZB/W F1 female mice [2]; group E: CKD-506 30 mg/kg/day): 155.92 ± 19.94 U/l | ALT (NZB/W F1 female mice [2]; group E: CKD-506 30 mg/kg/day): 20.79 ± 2.91 U/l | AST (NZB/W F1 female mice [2]; group E: CKD-506 30 mg/kg/day): 55.21 ± 19.34 U/l | Albumin (NZB/W F1 female mice [2]; group E: CKD-506 30 mg/kg/day): 2.19 ± 0.43 g/dL | CPK (NZB/W F1 female mice [2]; group E: CKD-506 30 mg/kg/day): 84.71 ± 31.40 U/l | Ca (NZB/W F1 female mice [2]; group E: CKD-506 30 mg/kg/day): 9.65 ± 0.69 mg/dL | Total bilirubin (NZB/W F1 female mice [2]; group E: CKD-506 30 mg/kg/day): 0.26 ± 0.12 mg/dL | Total protein (NZB/W F1 female mice [2]; group E: CKD-506 30 mg/kg/day): 5.21 ± 0.71 g/dL | ALP (NZB/W F1 female mice [2]; group F: 50 mg/kg/day): 153.08 ± 17.25 U/l | ALT (NZB/W F1 female mice [2]; group F: 50 mg/kg/day): 29.07 ± 12.21 U/l | AST (NZB/W F1 female mice [2]; group F: 50 mg/kg/day): 59.00 ± 56.14 U/l | Albumin (NZB/W F1 female mice [2]; group F: 50 mg/kg/day): 2.26 ± 0.35 g/dL | CPK (NZB/W F1 female mice [2]; group F: 50 mg/kg/day): 125.86 ± 177.18 U/l | Ca (NZB/W F1 female mice [2]; group F: 50 mg/kg/day): 9.43 ± 0.59 mg/dL | Total bilirubin (NZB/W F1 female mice [2]; group F: 50 mg/kg/day): 0.28 ± 0.14 mg/dL | Total protein (NZB/W F1 female mice [2]; group F: 50 mg/kg/day): 5.35 ± 0.60 g/dL | Kidney extract CCL2 (NZB/W F1 female mice [3]; [7]): 61.30 ± 70.39 pg/mL | Kidney extract CCL4 (NZB/W F1 female mice [3]; [7]): 12.77 ± 23.90 pg/mL | Kidney extract IFN-γ (NZB/W F1 female mice [3]; [7]): 17.46 ± 15.04 pg/mL | Kidney extract IL-1β (NZB/W F1 female mice [3]; [7]): 2.09 ± 2.68 pg/mL | Kidney extract IL-4 (NZB/W F1 female mice [3]; [7]): 0.01 ± 0.02 pg/mL | Kidney extract IL-6 (NZB/W F1 female mice [3]; [7]): 3.99 ± 2.72 pg/mL | Kidney extract IL-10 (NZB/W F1 female mice [3]; [7]): 9.43 ± 4.36 pg/mL | Kidney extract IL-15 (NZB/W F1 female mice [3]; [7]): 34.25 ± 21.24 pg/mL | Kidney extract IP-10 (NZB/W F1 female mice [3]; [7]): 98.47 ± 44.61 pg/mL | Kidney extract RANTES (NZB/W F1 female mice [3]; [7]): 31.17 ± 24.93 pg/mL | Kidney extract TNF-α (NZB/W F1 female mice [3]; [7]): Not detected | Kidney extract CCL2 (NZB/W F1 female mice [3]; [8]): 21.90 ± 17.10 pg/mL | Kidney extract CCL4 (NZB/W F1 female mice [3]; [8]): 1.70 ± 4.61 pg/mL | Kidney extract IFN-γ (NZB/W F1 female mice [3]; [8]): 13.12 ± 4.85 pg/mL | Kidney extract IL-1β (NZB/W F1 female mice [3]; [8]): 1.18 ± 2.19 pg/mL | Kidney extract IL-4 (NZB/W F1 female mice [3]; [8]): 0.02 ± 0.05 pg/mL | Kidney extract IL-6 (NZB/W F1 female mice [3]; [8]): 1.65 ± 0.82 pg/mL | Kidney extract IL-10 (NZB/W F1 female mice [3]; [8]): 9.62 ± 2.42 pg/mL | Kidney extract IL-15 (NZB/W F1 female mice [3]; [8]): 42.42 ± 16.89 pg/mL | Kidney extract IP-10 (NZB/W F1 female mice [3]; [8]): 63.40 ± 21.06 pg/mL | Kidney extract RANTES (NZB/W F1 female mice [3]; [8]): 9.30 ± 7.86 pg/mL | Kidney extract TNF-α (NZB/W F1 female mice [3]; [8]): Not detected | Kidney extract CCL2 (NZB/W F1 female mice [3]; group F: 50 mg/kg/day, n = 14): 3.15 ± 6.10 pg/mL | Kidney extract CCL4 (NZB/W F1 female mice [3]; group F: 50 mg/kg/day, n = 14): Not detected* | Kidney extract IFN-γ (NZB/W F1 female mice [3]; group F: 50 mg/kg/day, n = 14): 6.77 ± 4.06 pg/mL | Kidney extract IL-1β (NZB/W F1 female mice [3]; group F: 50 mg/kg/day, n = 14): 0.26 ± 0.60 pg/mL | Kidney extract IL-4 (NZB/W F1 female mice [3]; group F: 50 mg/kg/day, n = 14): Not detected* | Kidney extract IL-6 (NZB/W F1 female mice [3]; group F: 50 mg/kg/day, n = 14): 0.43 ± 0.45 pg/mL | Kidney extract IL-10 (NZB/W F1 female mice [3]; group F: 50 mg/kg/day, n = 14): 7.60 ± 2.08 pg/mL | Kidney extract IL-15 (NZB/W F1 female mice [3]; group F: 50 mg/kg/day, n = 14): 32.82 ± 11.63 pg/mL | Kidney extract IP-10 (NZB/W F1 female mice [3]; group F: 50 mg/kg/day, n = 14): 43.90 ± 14.50 pg/mL | Kidney extract RANTES (NZB/W F1 female mice [3]; group F: 50 mg/kg/day, n = 14): 3.80 ± 2.17 pg/mL | Kidney extract TNF-α (NZB/W F1 female mice [3]; group F: 50 mg/kg/day, n = 14): Not detected | effect on acetylation of histone H4 [4]: without affecting | acetylation of α tubulin, % of maximum acetylation (acetylation of α tubulin; at 100 nM, human PBMC): about 85% | IC90 (acetylation of α tubulin; read-out: IC90 for the induction of α tubulin acetylation): ~100 nM | Survival rate at the end of the study (NZB/W F1 female mice [5]; group CKD10: 10 mg/kg/day i.p.): 73.3% | incidence of severe proteinuria (urine protein >300 mg/dl) (NZB/W F1 female mice [5]; group CKD10: 10 mg/kg/day i.p.): 13.3% | Survival rate at the end of the study (NZB/W F1 female mice [5]; group CKD30: 30 mg/kg/day i.p.): 93.3% | incidence of severe proteinuria (urine protein >300 mg/dl) (NZB/W F1 female mice [5]; group CKD30: 30 mg/kg/day i.p.): 6.7% | Survival rate at the end of the study (NZB/W F1 female mice [5]; group CKD50: 50 mg/kg/day i.p.): 93.3% | incidence of severe proteinuria (urine protein >300 mg/dl) (NZB/W F1 female mice [5]; group CKD50: 50 mg/kg/day i.p.): 0% | urine protein/urine creatinine (UP/C) (NZB/W F1 female mice [5]; group CKD50, 42 weeks, not significantly different from other groups): lowest UP/C mean value | safety in phase I clinical trial [6]: did not reveal significant safety issues
